Our source for the maximum recommended daily dose (mmol/kg-bw/day) values is PubChem BioAssay AID1195 (EPA DSSTox, 2008).

This series relates to human maximum recommended daily dose, FDA database. Briefly: DSSTox (FDAMDD) FDA Maximum (Recommended) Daily Dose Database. The conditions noted are these: stronger effect = lower value. The method, boiled down: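 MRDD values come from clinical trials with daily oral dosing, usually for 3–12 months, for the average adult, in mg/day converted to mg/kg-bw/day assuming 60 kg. Antineoplastic mg/m2 doses are divided by 37. Activity score maps log10(1/MRDD mmol) onto 1–100.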

[1] abbreviates: TherapeuticCategory: antineoplastic.
Setting [2] is: TherapeuticCategory: anticonvulsant.
Where [3] appears, read: TherapeuticCategory: skeletal muscle relaxant.
Where [4] appears, read: TherapeuticCategory: anxiolytic.
Where [5] appears, read: TherapeuticCategory: sedative, hypnotic.
[6] abbreviates: TherapeuticCategory: antihyperlipoproteinemic.
The mark [7] stands for this setting: TherapeuticCategory: antibacterial.
Setting [8] is: TherapeuticCategory: glucocorticoid.

Regarding `NC(CO)C(=O)NNCc1ccc(O)c(O)c1O` (stereo not drawn), where the note is “TherapeuticCategory: antiparkinsonian”, the maximum recommended daily dose (mmol/kg-bw/day) is 0.0129.
Take `COc1cc(C[C@@H]2c3c(cc(OC)c(OC)c3OC)CC[N@@+]2(C)CCCOC(=O)CCC(=O)OCCC[N@@+]2(C)CCc3cc(OC)c(OC)c(OC)c3[C@@H]2Cc2cc(OC)c(OC)c(OC)c2)cc(OC)c1OC`: the maximum recommended daily dose (mmol/kg-bw/day) (TherapeuticCategory: skeletal muscle relaxant, neuromuscular blocker) is 4.52e-05.
Take `CC(CN1c2ccccc2Sc2ccc(S(=O)(=O)N(C)C)cc21)N(C)C` (stereo not drawn): the maximum recommended daily dose (mmol/kg-bw/day) (TherapeuticCategory: antimigraine) is 0.0034.
On to `Nc1nc(F)nc2c1ncn2[C@@H]1O[C@H](COP(=O)(O)O)[C@@H](O)[C@@H]1O`, for which the maximum recommended daily dose (mmol/kg-bw/day) under setting [1] was 0.00185.
Turning to `C[C@]12CC[C@@H]3c4ccc(OC(=O)c5ccccc5)cc4CC[C@H]3[C@@H]1CC[C@@H]2O`, the maximum recommended daily dose (mmol/kg-bw/day) (TherapeuticCategory: estrogen) is 0.00133.
`Nc1nnc(-c2cccc(Cl)c2Cl)c(N)n1`: under setting [2], the maximum recommended daily dose (mmol/kg-bw/day) was 0.026.
On to `C[n+]1ccccc1/C=N/O`, for which the maximum recommended daily dose (mmol/kg-bw/day) (TherapeuticCategory: cholinesterase inhibitor) is 0.193.
On to `COc1ccc(CC2c3cc(OC)c(OC)cc3CC[N+]2(C)CCC(=O)OCCCCCOC(=O)CC[N+]2(C)CCc3cc(OC)c(OC)cc3C2Cc2ccc(OC)c(OC)c2)cc1OC` (stereo not drawn), for which, under setting [3], the maximum recommended daily dose (mmol/kg-bw/day) is 0.000402.
On to `C[C@@H]1[C@H](O)[C@@H](C)/C=C/C=C/C=C/C=C/C=C/C=C/C=C/[C@H](O[C@@H]2O[C@H](C)[C@@H](O)[C@H](N)[C@@H]2O)C[C@@H]2O[C@](O)(C[C@@H](O)C[C@@H](O)[C@H](O)CC[C@@H](O)C[C@@H](O)CC(=O)O[C@H]1C)C[C@H](O)[C@H]2C(=O)O`, for which the maximum recommended daily dose (mmol/kg-bw/day) (TherapeuticCategory: antifungal) is 0.00162.
For `COc1cc(C(=O)N2CCOCC2)cc(OC)c1OC`, the maximum recommended daily dose (mmol/kg-bw/day) (TherapeuticCategory: sedative) was 0.178.
With `COC(=O)[C@H](c1ccccc1Cl)N1CCc2sccc2C1`, for the setting “TherapeuticCategory: antithrombotic”, the maximum recommended daily dose (mmol/kg-bw/day) is 0.00388.
In the case of `CCCCC(CC)COC(=O)CC(C(=O)OCC(CC)CCCC)S(=O)(=O)O` (stereo not drawn), the maximum recommended daily dose (mmol/kg-bw/day) (TherapeuticCategory: stool softener) was 0.0109.
`Nc1ncn([C@@H]2O[C@H](CO)[C@@H](O)[C@H]2O)c(=O)n1`: under setting [1], the maximum recommended daily dose (mmol/kg-bw/day) was 0.0831.
With `Cc1cc2cc3c(C)cc(=O)oc3c(C)c2o1`, the maximum recommended daily dose (mmol/kg-bw/day) (TherapeuticCategory: pigmentation agent) was 0.000732.
`O=C1CN2CCOC2(c2ccccc2F)c2cc(Cl)ccc2N1CCO` (stereo not drawn): under setting [4], the maximum recommended daily dose (mmol/kg-bw/day) is 0.000531.
On the same count and under the same terms, the figure for `CN1CCN(C2=Nc3ccccc3Oc3ccc(Cl)cc32)CC1` is 0.0127.
With `CCC1(CC)C(=O)NCC(C)C1=O` (stereo not drawn), the maximum recommended daily dose (mmol/kg-bw/day) under setting [5] was 0.0364.
With `CN(C(=O)CC(=O)N(C)c1c(I)c(C(=O)NC(CO)C(O)CO)c(I)c(C(=O)NC(CO)C(O)CO)c1I)c1c(I)c(C(=O)NC(CO)C(O)CO)c(I)c(C(=O)NC(CO)C(O)CO)c1I` (stereo not drawn), under “TherapeuticCategory: diagnostic aid”, the maximum recommended daily dose (mmol/kg-bw/day) is 0.0615.
With `O=C(OCC(COC(=O)c1cccnc1)(COC(=O)c1cccnc1)COC(=O)c1cccnc1)c1cccnc1`, the maximum recommended daily dose (mmol/kg-bw/day) under setting [6] was 0.00719.
For `CN(C)CCOC(C)(c1ccccc1)c1ccc(Cl)cc1` (stereo not drawn), the maximum recommended daily dose (mmol/kg-bw/day) (TherapeuticCategory: antiamebic) is 0.123.
Take `CC1(C)[C@@H](OC(=O)CCC(=O)O)CC[C@]2(C)[C@H]3C(=O)C=C4[C@@H]5C[C@@](C)(C(=O)O)CC[C@]5(C)CC[C@@]4(C)[C@]3(C)CC[C@@H]12`: the maximum recommended daily dose (mmol/kg-bw/day) (TherapeuticCategory: antiulcerative) was 0.00876.
For `CCOc1c(N2CCOCC2)cnn(C)c1=O`, the maximum recommended daily dose (mmol/kg-bw/day) (TherapeuticCategory: analgesic, anti inflammatory) is 0.0139.
As for `COC(=O)C1=C(C)NC(C)=C(C(=O)O[C@@H]2CCCN(Cc3ccccc3)C2)[C@@H]1c1cccc([N+](=O)[O-])c1`, for the setting “TherapeuticCategory: antihypertensive, Ca channel blocker”, the maximum recommended daily dose (mmol/kg-bw/day) is 0.000263.
As to `C#C[C@]1(O)CC[C@H]2[C@@H]3CCC4=Cc5oncc5C[C@]4(C)[C@H]3CC[C@@]21C`, the maximum recommended daily dose (mmol/kg-bw/day) (TherapeuticCategory: antigonadotropin) was 0.0394.
Regarding `CCN(CC)CCOC(=O)C1(C2CCCCC2)CCCCC1`, the maximum recommended daily dose (mmol/kg-bw/day) (TherapeuticCategory: anticholinergic) was 0.0043.
Turning to `CC(C1=C(CCN(C)C)Cc2ccccc21)c1ccccn1` (stereo not drawn), the maximum recommended daily dose (mmol/kg-bw/day) (TherapeuticCategory: antihistaminic) was 0.000342.
Consider `CC1=C(/C=C/C(C)=C/C=C/C(C)=C/CO)C(C)(C)CCC1`, for which, for the setting “TherapeuticCategory: antixerophthalmic vitamin”, the maximum recommended daily dose (mmol/kg-bw/day) was 0.0032.
Take `C[C@]12CC[C@H]3[C@@H](CCC4=CC(=O)CC[C@@H]43)[C@@H]1CC[C@@H]2O`: where the note is “TherapeuticCategory: anabolic”, the maximum recommended daily dose (mmol/kg-bw/day) is 0.0121.
As to `O=c1[nH]cc(F)c(=O)[nH]1`, the maximum recommended daily dose (mmol/kg-bw/day) under setting [1] is 0.0923.
Turning to `CC(C)(C)NCC(O)CSc1nc(-c2ccc(C(N)=O)s2)cs1` (stereo not drawn), the maximum recommended daily dose (mmol/kg-bw/day) (TherapeuticCategory: antihypertensive, antianginal, antiarrhythmic) was 0.000896.
Turning to `OC[C@@H](O)[C@H]1O[C@@H]2O[C@H](C(Cl)(Cl)Cl)O[C@@H]2[C@H]1O`, the maximum recommended daily dose (mmol/kg-bw/day) under setting [5] was 0.0269.
Consider `CN1C(CCl)Nc2cc(Cl)c(S(N)(=O)=O)cc2S1(=O)=O` (stereo not drawn), for which the maximum recommended daily dose (mmol/kg-bw/day) (TherapeuticCategory: diuretic, antihypertensive) is 0.000464.
Turning to `CC(C)(C)NCC(O)c1ccc(O)c(CO)c1` (stereo not drawn), for the setting “TherapeuticCategory: bronchodilator, tocolytic”, the maximum recommended daily dose (mmol/kg-bw/day) is 0.00223.
On to `O=C(O)c1cn(C2CC2)c2cc(N3CCNCC3)c(F)cc2c1=O`, for which, under setting [7], the maximum recommended daily dose (mmol/kg-bw/day) was 0.0401.
As for `Nc1cc(-c2ccncc2)c[nH]c1=O`, the maximum recommended daily dose (mmol/kg-bw/day) (TherapeuticCategory: cardiotonic) is 0.00401.
As for `CC1(C)[C@H](C(=O)O)N2C(=O)C[C@H]2S1(=O)=O`, the maximum recommended daily dose (mmol/kg-bw/day) (TherapeuticCategory: combination to form antibacterial) was 0.286.
`C[C@H](CN1CCOCC1)C(C(=O)N1CCCC1)(c1ccccc1)c1ccccc1`: the maximum recommended daily dose (mmol/kg-bw/day) (TherapeuticCategory: narcotic analgesic) is 0.000848.
In the case of `COc1ccc(C2C(=O)c3ccccc3C2=O)cc1`, for the setting “TherapeuticCategory: anticoagulant”, the maximum recommended daily dose (mmol/kg-bw/day) was 0.0198.
For the compound `Cc1ccc(C(=O)C(C)CN2CCCCC2)cc1` (stereo not drawn), under setting [3], the maximum recommended daily dose (mmol/kg-bw/day) was 0.0204.
As for `O=C1Nc2ccc(Cl)cc2C(c2ccccc2Cl)=NC1O` (stereo not drawn), under setting [4], the maximum recommended daily dose (mmol/kg-bw/day) is 0.00052.
As for `CCC1(c2ccc(N)cc2)CCC(=O)NC1=O` (stereo not drawn), the maximum recommended daily dose (mmol/kg-bw/day) under setting [2] is 0.0719.
`C[C@H]1C[C@H]2[C@@H]3CCC4=CC(=O)C=C[C@]4(C)[C@@]3(F)[C@@H](O)C[C@]2(C)[C@@]1(O)C(=O)CO`: the maximum recommended daily dose (mmol/kg-bw/day) under setting [8] was 0.000382.
On to `C#CCN1C(=O)CN=C(c2ccccc2)c2cc(Cl)ccc21`, for which the maximum recommended daily dose (mmol/kg-bw/day) under setting [4] is 0.00108.
Take `Cc1ncc2n1-c1ccc(Cl)cc1C(c1ccccc1F)=NC2`: the maximum recommended daily dose (mmol/kg-bw/day) (TherapeuticCategory: anesthetic) is 0.000256.
`Cc1cc(C(=O)NCCc2ccc(S(=O)(=O)NC(=O)NN3CCCCCC3)cc2)no1`: the maximum recommended daily dose (mmol/kg-bw/day) (TherapeuticCategory: antidiabetic) was 0.000594.
Turning to `COCCc1ccc(OCC(O)CNC(C)C)cc1` (stereo not drawn), the maximum recommended daily dose (mmol/kg-bw/day) (TherapeuticCategory: antihypertensive, antianginal) was 0.0249.
Regarding `CCOC(=O)/C=C(C)/C=C/C=C(C)/C=C/c1c(C)cc(OC)c(C)c1C`, the maximum recommended daily dose (mmol/kg-bw/day) (TherapeuticCategory: antipsoriatic) was 0.00423.
Regarding `Cc1ccccc1C(OCCN(C)C)c1ccccc1` (stereo not drawn), the maximum recommended daily dose (mmol/kg-bw/day) (TherapeuticCategory: skeletal muscle relaxant, antihistiminic) was 0.0248.
With `O=c1ccc2ccccc2o1`, where the note is “TherapeuticCategory: pharmaceutic aid”, the maximum recommended daily dose (mmol/kg-bw/day) is 0.0114.
Regarding `CN(C)CCOC1=Cc2ccccc2Sc2ccc(Cl)cc21`, the maximum recommended daily dose (mmol/kg-bw/day) (TherapeuticCategory: antipsychotic) was 0.0226.
With `CCCCCCCCCCCCCCCCCC(=O)OCC(=O)OCC(=O)[C@@]1(O)CC[C@H]2[C@@H]3CCC4=CC(=O)C=C[C@]4(C)[C@H]3[C@@H](O)C[C@@]21C`, under setting [8], the maximum recommended daily dose (mmol/kg-bw/day) was 0.00486.
Consider `CC(=O)OCC(=O)[C@@]1(O)[C@H](C)C[C@H]2[C@@H]3CCC4=CC(=O)C=C[C@]4(C)[C@@]3(F)C(O)C[C@@]21C` (stereo partly drawn), for which the maximum recommended daily dose (mmol/kg-bw/day) (TherapeuticCategory: glucocorticoid, anti inflammatory) was 0.000345.
Turning to `CCC(=O)O[C@H]1[C@H](O[C@@H]2[C@@H](C)[C@H](O[C@H]3C[C@@](C)(OC)[C@@H](O)[C@H](C)O3)[C@@H](C)C(=O)O[C@H](CC)[C@@](C)(O)[C@H](O)[C@@H](C)C(=O)[C@H](C)C[C@@]2(C)O)O[C@H](C)C[C@@H]1N(C)C`, the maximum recommended daily dose (mmol/kg-bw/day) under setting [7] was 0.0844.
In the case of `CCO[C@@H]1O[C@H](C(COCc2ccccc2)OCc2ccccc2)[C@H](OCc2ccccc2)[C@H]1O` (stereo partly drawn), for the setting “TherapeuticCategory: sclerosing agent”, the maximum recommended daily dose (mmol/kg-bw/day) was 0.0278.
With `CC1(C)S[C@@H]2[C@H](N=CN3CCCCCC3)C(=O)N2[C@H]1C(=O)O`, the maximum recommended daily dose (mmol/kg-bw/day) under setting [7] is 0.0461.
Consider `CCC1(c2ccccc2)CCC(=O)NC1=O` (stereo not drawn), for which, under setting [5], the maximum recommended daily dose (mmol/kg-bw/day) was 0.0383.
With `CCOC(=O)C1(c2ccccc2)CCN(CCC(C#N)(c2ccccc2)c2ccccc2)CC1`, the maximum recommended daily dose (mmol/kg-bw/day) (TherapeuticCategory: antiperistaltic, antidiarrheal) was 0.000736.
For `O=c1c(CO)c/c(=N/Nc2ccc(S(=O)(=O)O)c3ccccc23)c(=O)/c1=N/Nc1ccc(S(=O)(=O)O)c2ccccc12`, where the note is “TherapeuticCategory: food additive”, the maximum recommended daily dose (mmol/kg-bw/day) was 0.0023.
`COc1ccc(OC)c(C(O)C(C)N)c1` (stereo not drawn): for the setting “TherapeuticCategory: adrenergic”, the maximum recommended daily dose (mmol/kg-bw/day) is 0.00158.
As to `CCC1NC(=O)c2cc(S(N)(=O)=O)c(Cl)cc2N1` (stereo not drawn), the maximum recommended daily dose (mmol/kg-bw/day) (TherapeuticCategory: diuretic) was 0.0115.
Regarding `CC(=O)OC[C@H]1O[C@@H](n2ncc(=O)[nH]c2=O)[C@H](OC(C)=O)[C@@H]1OC(C)=O`, the maximum recommended daily dose (mmol/kg-bw/day) (TherapeuticCategory: antineoplastic, antipsoriatic) is 0.458.
On to `CN(C)C(=O)CCCOC(=O)C(C)(C)Oc1ccc(Cl)cc1`, for which the maximum recommended daily dose (mmol/kg-bw/day) under setting [6] was 0.137.
`COc1cc(NCc2ccc3nc(N)nc(N)c3c2C)cc(OC)c1OC`: the maximum recommended daily dose (mmol/kg-bw/day) under setting [1] is 0.0033.
